Test results: US20150266878A1, “NOVEL BI-RING PHENYL-PYRIDINES/PYRAZINES FOR THE TREATMENT OF CANCER” (HOFFMANN-LA ROCHE INC., priority 2012, published 2015)

molecular target: T1, CDK8/Cyclin C (Homo sapiens, UniProt P49336); test: CDK8/Cyclin C LANCE TR-FRET kinase assay; format: biochemical; conditions: CDK8/Cyclin C 10 nM, ATP 24 μM, Ulight-GS peptide 80 nM, 37° C. 30 mins
T1 construct: purchased Invitrogen PV4402
Source text: CDK8/Cyclin C LANCE TR-FRET Kinase Assay:
The biological activity of the compounds of the invention can be determined using the assay described below.
CDK8/Cyclin C protein was obtained from Invitrogen, cat #PV4402. ULight-Glycogen Synthase (Ulight-GS) peptide with sequence PASVPPSPSLSRHSSPHQ(pS)ED, and Europium-anti-phospho Glycogen Synthase (Ser641) [Eu-anti-P-GS (Ser641)] were obtained from Perkin Elmer, cat #TRF0131-M and cat #TRF0220. Adenosine-5′-triphosphate (ATP) was obtained from Invitrogen, cat #PV3227.
A mixture of (1) a compound of formula I, (2) substrate [Ulight-GS peptide (80 nM) and ATP (24 μM)], and (3) CDK8/Cyclin C (10 nM) in reaction buffer (50 mM Hepes, pH7.0, 10 mM MgCl2, 1 mM EGTA, 0.2 mg/mL BSA, 0.8 mM DTT) were incubated at 37° C. for 30 mins. Then, [Eu-anti-P-GS (Ser641)] (1.5 nM) was added. Following incubation at room temperature for 30 mins, the TR-FRET signals were detected using Envision reader (Ex 340 nm, Em 615 nm and 665 nm) from Perkin Elmer. The reactivity in percentage of inhibition or dose response was analyzed with GraphPad Prism 5 (GraphPad Software).

T1 sequence (P49336 whole entry): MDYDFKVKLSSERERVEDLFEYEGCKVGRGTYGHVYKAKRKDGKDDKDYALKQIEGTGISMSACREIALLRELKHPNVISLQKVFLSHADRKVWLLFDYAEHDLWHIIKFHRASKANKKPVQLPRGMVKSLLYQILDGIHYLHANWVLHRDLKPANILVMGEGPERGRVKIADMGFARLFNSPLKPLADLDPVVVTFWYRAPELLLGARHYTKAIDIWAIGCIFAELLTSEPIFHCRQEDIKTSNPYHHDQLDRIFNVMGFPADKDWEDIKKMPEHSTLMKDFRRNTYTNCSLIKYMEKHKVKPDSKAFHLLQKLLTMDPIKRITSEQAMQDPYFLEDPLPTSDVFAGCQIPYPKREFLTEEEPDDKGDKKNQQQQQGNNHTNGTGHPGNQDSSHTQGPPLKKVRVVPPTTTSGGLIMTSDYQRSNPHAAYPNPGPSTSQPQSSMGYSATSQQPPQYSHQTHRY
T1 sequence (P24863 whole entry partner): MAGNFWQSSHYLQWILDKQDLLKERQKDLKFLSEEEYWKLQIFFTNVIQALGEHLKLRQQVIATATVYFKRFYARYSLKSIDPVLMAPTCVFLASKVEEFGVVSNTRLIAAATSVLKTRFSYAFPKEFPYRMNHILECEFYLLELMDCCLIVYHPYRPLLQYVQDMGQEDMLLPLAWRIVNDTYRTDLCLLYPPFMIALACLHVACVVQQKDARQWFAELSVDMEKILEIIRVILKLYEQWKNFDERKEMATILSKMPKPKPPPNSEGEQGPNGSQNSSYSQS

SMILES	IC50 [nM]
CC1(C)C(=O)Nc2ccc(-c3cncc(N[C@@H](CO)c4ccccc4)c3)cc21 [Example 2, 5-[5-((R)-2-Hydroxy-1-phenyl-ethylamino)-pyridin-3-yl]-3,3-dimethyl-1,3-dihydro-indol-2-one]	132
O=C1Cc2cc(-c3cncc(N[C@@H](CO)c4ccccc4Cl)c3)ccc2N1 [Example 3, 5-{5-[(R)-1-(2-Chloro-phenyl)-2-hydroxy-ethylamino]-pyridin-3-yl}-1,3-dihydro-indol-2-one]	2.1
O=C1Cc2cc(-c3cncc(N[C@H](CO)c4ccccc4Cl)c3)ccc2N1 [Example 4, 5-{5-[(S)-1-(2-Chloro-phenyl)-2-hydroxy-ethylamino]-pyridin-3-yl}-1,3-dihydro-indol-2-one]	157
O=C1Nc2ccc(-c3cncc(N[C@@H](CO)c4ccccc4)c3)cc2C12CC2 [Example 6, (R)-5′-(5-((2-Hydroxy-1-phenylethyl)amino)pyridin-3-yl)-spiro[cyclopropane-1,3′-indolin]-2′-one]	2.9
O=C1Cc2cc(-c3cncc(N[C@@H](CO)c4ccccc4)c3)cnc2N1 [Example 7, 5-[5-((R)-2-Hydroxy-1-phenyl-ethylamino)-pyridin-3-yl]-1,3-dihydro-pyrrolo[2,3-b]pyridin-2-one]	315
O=C1Nc2ccc(-c3cncc(N[C@@H](CO)c4ccccc4)c3)cc2C1(F)F [Example 8, 3,3-Difluoro-5-[5-((R)-2-hydroxy-1-phenyl-ethylamino)-pyridin-3-yl]-1,3-dihydro-indol-2-one]	37.6
O=C1Cc2nc(-c3cncc(N[C@@H](CO)c4ccccc4)c3)ccc2N1 [Example 9, 5-[5-((R)-2-Hydroxy-1-phenyl-ethylamino)-pyridin-3-yl]-1,3-dihydro-pyrrolo[3,2-b]pyridin-2-one]	81.3
O=C1Cc2cc(-c3cncc(N[C@@H](CO)c4ccccc4)c3)cc(F)c2N1 [Example 11, 7-Fluoro-5-[5-((R)-2-hydroxy-1-phenyl-ethylamino)-pyridin-3-yl]-1,3-dihydro-indol-2-one]	27.8
O=c1[nH]c2ccc(-c3cncc(N[C@@H](CO)c4ccccc4)c3)cc2o1 [Example 12, 6-[5-((R)-2-Hydroxy-1-phenyl-ethylamino)-pyridin-3-yl]-3H-benzooxazol-2-one]	3.8
O=c1[nH]c2ccc(-c3cncc(N[C@@H](CO)c4ccccc4)c3)cc2s1 [Example 13, 6-[5-((R)-2-Hydroxy-1-phenyl-ethylamino)-pyridin-3-yl]-3H-benzothiazol-2-one]	7.8
OC[C@H](Nc1cncc(-c2ccc3c(c2)OCO3)c1)c1ccccc1 [Example 14, (R)-2-(5-Benzo[1,3]dioxol-5-yl-pyridin-3-ylamino)-2-phenyl-ethanol]	46.3
OC[C@H](Nc1cncc(-c2ccc3c(c2)OCCO3)c1)c1ccccc1 [Example 15, (R)-2-[5-(2,3-Dihydro-benzo[1,4]dioxin-6-yl)-pyridin-3-ylamino]-2-phenyl-ethanol]	350
OC[C@H](Nc1cncc(-c2cccc3[nH]ccc23)c1)c1ccccc1 [Example 17, (R)-2-[5-(1H-Indol-4-yl)-pyridin-3-ylamino]-2-phenyl-ethanol]	191
CS(=O)(=O)c1n[nH]c2ccc(-c3cncc(N[C@@H](CO)c4ccccc4)c3)cc12 [Example 23, (R)-2-[5-(3-Methanesulfonyl-1H-indazol-5-yl)-pyridin-3-ylamino]-2-phenyl-ethanol]	3.2
OC[C@H](Nc1cncc(-c2ccc3[nH]nnc3c2)c1)c1ccccc1 [Example 26, (R)-2-[5-(1H-Benzotriazol-5-yl)-pyridin-3-ylamino]-2-phenyl-ethanol]	9.4
OC[C@H](Nc1cncc(-c2ccc3[nH]ncc3n2)c1)c1ccccc1 [Example 27, (R)-2-Phenyl-2-[5-(1H-pyrazolo[4,3-b]pyridin-5-yl)-pyridin-3-ylamino]-ethanol]	9.7
NC(=O)C(Nc1cncc(-c2ccc3c(c2)CC(=O)N3)c1)c1ccccc1 (stereo not shown) [Example 29, 2-[5-(2-Oxo-2,3-dihydro-1H-indol-5-yl)-pyridin-3-ylamino]-2-phenyl-acetamide]	67.2
CC(=O)NC[C@H](Nc1cncc(-c2ccc3c(c2)CC(=O)N3)c1)c1ccccc1 [Example 30, N-{(R)-2-[5-(2-Oxo-2,3-dihydro-1H-indol-5-yl)-pyridin-3-ylamino]-2-phenyl-ethyl}-acetamide]	22.7
NC(=O)C(Nc1cncc(-c2ccc3c(c2)CNC3=O)c1)c1ccccc1 (stereo not drawn) [Example 31, 2-[5-(l-Oxo-2,3-dihydro-1H-isoindol-5-yl)-pyridin-3-ylamino]-2-phenyl-acetamide]	294
CC1(C)C(=O)Nc2ccc(-c3cncc(NC(C(N)=O)c4ccccc4)c3)cc21 (stereo not shown) [Example 32, 2-[5-(3,3-Dimethyl-2-oxo-2,3-dihydro-1H-indol-5-yl)-pyridin-3-ylamino]-2-phenyl-acetamide]	813
NC(=O)C(Nc1cncc(-c2ccc3c(c2)CCC(=O)N3)c1)c1ccccc1 (stereo not shown) [Example 33, 2-[5-(2-Oxo-1,2,3,4-tetrahydro-quinolin-6-yl)-pyridin-3-ylamino]-2-phenyl-acetamide]	1890

These reach a lower IC50. Values come first.

IC50 [nM]	SMILES
1.1	O=c1[nH]c2ccc(-c3cncc(N[C@@H](CO)c4ccccc4)c3)cc2[nH]1 [Example 5, 5-[5-((R)-2-Hydroxy-1-phenyl-ethylamino)-pyridin-3-yl]-1,3-dihydro-benzoimidazol-2-one]
0.5	O=C1Cc2cc(-c3cncc(N[C@@H](CO)c4ccccc4)c3)c(F)cc2N1 [Example 10, 6-Fluoro-5-[5-((R)-2-hydroxy-1-phenyl-ethylamino)-pyridin-3-yl]-1,3-dihydro-indol-2-one]
0.8	Nc1n[nH]c2ccc(-c3cncc(N[C@@H](CO)c4ccccc4)c3)cc12 [Example 18, (R)-2-[5-(3-Amino-1H-indazol-5-yl)-pyridin-3-ylamino]-2-phenyl-ethanol]
1.8	OC[C@H](Nc1cncc(-c2ccc3[nH]nc(F)c3c2)c1)c1ccccc1 [Example 19]
0.5	Cc1n[nH]c2ccc(-c3cncc(N[C@@H](CO)c4ccccc4)c3)cc12 [Example 20, (R)-2-[5-(3-Methyl-1H-indazol-5-yl)-pyridin-3-ylamino]-2-phenyl-ethanol]
1.5	CCc1n[nH]c2ccc(-c3cncc(N[C@@H](CO)c4ccccc4)c3)cc12 [Example 21, (R)-2-[5-(3-Ethyl-1H-indazol-5-yl)-pyridin-3-ylamino]-2-phenyl-ethanol]
0.5	CSc1n[nH]c2ccc(-c3cncc(N[C@@H](CO)c4ccccc4)c3)cc12 [Example 22, (R)-2-[5-(3-Methylsulfanyl-1H-indazol-5-yl)-pyridin-3-ylamino]-2-phenyl-ethanol]
1.1	OC[C@H](Nc1cncc(-c2cnc3[nH]ncc3c2)c1)c1ccccc1 [Example 24, (R)-2-Phenyl-2-[5-(1H-pyrazolo[3,4-b]pyridin-5-yl)-pyridin-3-ylamino]-ethanol]
0.7	OC[C@H](Nc1cncc(-c2cc3cn[nH]c3cn2)c1)c1ccccc1 [Example 25, (R)-2-Phenyl-2-[5-(1H-pyrazolo[3,4-c]pyridin-5-yl)-pyridin-3-ylamino]-ethanol]
1	OC[C@H](Nc1cncc(-c2ccc3[nH]nc(Cl)c3c2)c1)c1ccccc1 [Example 28, (R)-2-[5-(3-Chloro-1H-indazol-5-yl)-pyridin-3-ylamino]-2-phenyl-ethanol]
